The text below walks through data of patent US9686984B2, “Macrocyclic picolinamides as fungicides” (DOW AGROSCIENCES LLC, priority 2014, dated 2017).

Assay type in all cases: in vivo
The subject of one assay is Cercospora beticola. The experiment in a line: Leaf Spot of Sugar Beets (CERCBE) disease control. The following applies: 100 ppm, 1 Day Protectant. How it is done: Technical grades of materials were dissolved in acetone, which were then mixed with nine volumes of water containing 110 ppm Triton X-100. The fungicide solutions were applied onto wheat seedlings using an automated booth sprayer to run-off. All sprayed plants were allowed to air dry prior to further handling. All fungicides were evaluated using the aforementioned method for their activity vs. all target diseases, unless stated otherwise. Wheat leaf blotch and brown rust activity were also evaluated using track spray applications, in which case the fungicides were formulated as EC formulations, containing 0.1% Trycol 5941 in the spray solutions. Wheat plants (variety Yuma) were grown from seed in a greenhouse in 50% mineral soil/50% soil-less Metro mix until the first leaf was fully emerged, with 7-10 seedlings per pot. These plants were inoculated with an aqueous spore suspension of Septoria tritici either prior to or after fungicide treatments. After inoculation the plants were kept in 100% relative humidity (one day in a dark dew chamber followed by two to three days in a lighted dew chamber at 20° C.) to permit spores to germinate and infect the leaf. The plants were then transferred to a greenhouse set at 20° C. for disease to develop. When disease symptoms were fully expressed on the 1st leaves of untreated plants, infection levels were assessed on a scale of 0 to 100 percent disease severity. Percent disease control was calculated using the ratio of disease severity on treated plants relative to untreated plants. Example G: Evaluation of Fungicidal Activity: Leaf Spot of Sugar Beets (Cercospora Beticola; Bayer Code CERCBE) Sugar beet plants (variety HH88) were grown in soil-less Metro mix and trimmed regularly to maintain a uniform plant size prior to test. Plants were inoculated with a spore suspension 24 hr after fungicide treatments. Inoculated plants were kept in a dew chamber at 22° C. for 48 hr then incubated in a greenhouse set at 24° C. under a clear plastic hood with bottom ventilation until disease symptoms were fully expressed. […]

In the next assay the test system is Glomerella lagenarium. The experiment in a line: Cucumber Anthracnose (COLLLA) disease control. The settings on record: 100 ppm, 1 Day Protectant. How it is done: Technical grades of materials were dissolved in acetone, which were then mixed with nine volumes of water containing 110 ppm Triton X-100. The fungicide solutions were applied onto wheat seedlings using an automated booth sprayer to run-off. All sprayed plants were allowed to air dry prior to further handling. All fungicides were evaluated using the aforementioned method for their activity vs. all target diseases, unless stated otherwise. Wheat leaf blotch and brown rust activity were also evaluated using track spray applications, in which case the fungicides were formulated as EC formulations, containing 0.1% Trycol 5941 in the spray solutions. Wheat plants (variety Yuma) were grown from seed in a greenhouse in 50% mineral soil/50% soil-less Metro mix until the first leaf was fully emerged, with 7-10 seedlings per pot. These plants were inoculated with an aqueous spore suspension of Septoria tritici either prior to or after fungicide treatments. After inoculation the plants were kept in 100% relative humidity (one day in a dark dew chamber followed by two to three days in a lighted dew chamber at 20° C.) to permit spores to germinate and infect the leaf. The plants were then transferred to a greenhouse set at 20° C. for disease to develop. When disease symptoms were fully expressed on the 1st leaves of untreated plants, infection levels were assessed on a scale of 0 to 100 percent disease severity. Percent disease control was calculated using the ratio of disease severity on treated plants relative to untreated plants. Example N: Evaluation of Fungicidal Activity: Cucumber Anthracnose (Glomerella lagenarium; Anamorph: Colletotrichum lagenarium; Bayer Code COLLLA) Cucumber seedlings (variety Bush Pickle) were propagated in soil-less Metro mix, with each pot having one plant, and used in the test when 12 to 14 days old. Test plants were inoculated with an aqueous spore suspension of Colletotrichum lagenarium 24 hr after fungicide treatments. […]

In the next assay the test system is Puccinia triticina. As to the kind of experiment: Wheat Brown Rust (PUCCRT) disease control on wheat seedlings. The following applies: for pest or weed control at 121.5 g/ha: Low Volume (121.5 g/H); for pest or weed control at 100 µg/mL: High Volume (100 ppm). Put shortly: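 Yuma wheat seedlings at the first-leaf stage sprayed to run-off (acetone solution in nine volumes of water, 110 ppm Triton X-100) or track-sprayed as EC with 0.1% Trycol 5941. Inoculation with P. triticina before or after treatment, then overnight dark dew at 22° C., 100% RH, then a 24° C. greenhouse. Percent control from severity vs untreated.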

Setting [1] is: 24 h, 1 Day Protectant, read-out: PUCCRT disease control, 1 DP.
[2] abbreviates: 72 h, 3 Day Curative, read-out: PUCCRT disease control, 3 DC.

Where two headings read alike, the source gives them in different places.

For the molecule `CCCC[C@H]1OCC[C@H](NC(=O)c2nccc(OC)c2OC(C)=O)C(=O)O[C@@H](C)[C@@H]1Cc1ccccc1` [Compound 2], in the assay on Cercospora beticola, the “CERCBE disease control, 1DP” value was “A (>70)”. Besides, the “COLLLA disease control, 1DP” value in the assay with Glomerella lagenarium is given as “A (>70)”. Further, the pest or weed control at 121.5 g/ha in the assay on Puccinia triticina (setting [1]) and with Puccinia triticina (setting [2]) was greater than 70% in each case.

On to `COc1ccnc(C(=O)N[C@H]2CCO[C@H](Cc3ccccc3)[C@@H](Cc3ccccc3)[C@H](C)OC2=O)c1OC(C)=O` [Compound 3], for which, in the assay on Cercospora beticola, the “CERCBE disease control, 1DP” value is given as “A (>70)”. The “COLLLA disease control, 1DP” value in the assay on Glomerella lagenarium is “A (>70)”. Besides, the pest or weed control at 121.5 g/ha in the assay with Puccinia triticina (setting [1]) and in the assay with Puccinia triticina (setting [2]) was greater than 70% each time.

In the case of `CCC[C@H]1OCC[C@H](NC(=O)c2nccc(OC)c2OCOC(C)=O)C(=O)O[C@@H](C)[C@@H]1Cc1ccccc1` [Compound 17], in the assay on Cercospora beticola, the “CERCBE disease control, 1DP” value was “A (>70)”. In the assay on Glomerella lagenarium, the “COLLLA disease control, 1DP” value is reported as “A (>70)”. Also, in the assay on Puccinia triticina (setting [1]), the pest or weed control at 100 µg/mL was greater than 70% and the pest or weed control at 121.5 g/ha is greater than 70%. Further, in the assay with Puccinia triticina (setting [2]), the pest or weed control at 100 µg/mL was greater than 70% and the pest or weed control at 121.5 g/ha is greater than 70%.
